Here are results for 2 compounds from patent publication US20240002936A1, “USE OF BRAIN ORGANOIDS AND SINGLE CELL GENOMICS TO UNDERSTAND AND TREAT NEURODEVELOPMENTAL AND NEUROPSYCHIATRIC DISORDERS” (President and Fellows of Harvard College, priority 2020, published 2024).

Experiment [1] concerns PGP1 SUV420H1 control and mutant organoids. The experiment can be described thus: Calcium imaging of spontaneous neuronal activity in intact brain organoids. Type of experiment: cell-based, human. The conditions noted are these: 20 μM NBQX.
The test system of the next experiment is human brain organoids. Type of experiment: cell-based.

With `NS(=O)(=O)c1cccc2c1c([N+](=O)[O-])cc1[nH]c(=O)c(=O)[nH]c12` [NBQX, 2,3-dioxo-6-nitro-1,2,3,4-tetrahydrobenzo[f]quinoxaline-7-sulfonamide], the “calcium activity after blockade of excitatory synapses with NBQX, SUV420H1 mutant organoids” value in experiment [1] (PGP1 SUV420H1+/- mutant organoids) was “no calcium transients”. In addition, the “calcium activity after blockade of excitatory synapses with NBQX, control organoids” value in experiment [1] (PGP1 control organoids) is listed as “residual uncorrelated activity”. Also, the “network bursting upon bath application of NBQX” value in experiment [1] (four month organoids (128 d.i.v.)) is “abolished”.

For `NC1=N[C@H](O)[C@H]2[C@H]3O[C@]4(O)O[C@@H]([C@@H](O)[C@@]2(N1)[C@@H]4O)[C@]3(O)CO` [TTX, tetrodotoxin], the “trains of action potentials composing network bursting, sensitivity to TTX” value with human brain organoids is reported as “sensitive”.
